In test [1] the target is T1, FtsZ (Bacillus subtilis, UniProt P17865).
T1 sequence (P17865 1-382): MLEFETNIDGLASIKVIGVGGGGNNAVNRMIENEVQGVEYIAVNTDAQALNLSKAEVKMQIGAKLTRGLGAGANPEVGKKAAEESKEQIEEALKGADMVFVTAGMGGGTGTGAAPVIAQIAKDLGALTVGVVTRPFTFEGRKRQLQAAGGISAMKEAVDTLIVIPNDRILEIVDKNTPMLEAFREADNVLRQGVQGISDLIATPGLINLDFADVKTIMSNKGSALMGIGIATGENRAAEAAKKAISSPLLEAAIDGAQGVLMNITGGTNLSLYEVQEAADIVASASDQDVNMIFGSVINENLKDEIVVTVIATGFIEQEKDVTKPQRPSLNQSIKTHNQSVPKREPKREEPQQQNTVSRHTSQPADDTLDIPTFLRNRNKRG
The test can be described thus: fluorescence titration (intrinsic alkyl gallate fluorescence) with purified FtsZ; also GTPase inhibition and sedimentation. In kind it is binding.

Test [2] deals with T1, FtsZ. Kind of test: malachite green GTPase assay at […] with Triton X-100 (Kd could not be calculated). In kind it is biochemical.
Test [3] concerns the target T1, FtsZ. Kind of test: fluorescence titration with purified FtsZ (poorer fit, R^[…] = […]); also GTPase inhibition and sedimentation. In kind it is binding.

At FtsZ [1], `CCCCCCCOC(=O)c1cc(O)c(O)c(O)c1` [compound 10, Heptyl gallate] returned a dissociation constant Kd of 80 ± 30 nM.
For `CCCCCCOC(=O)c1cc(O)c(O)c(O)c1` [compound 9, Hexyl gallate], the “malachite green GTPase assay at 50 μg/mL with Triton X-100 (Kd could not be calc)” value on FtsZ [2] is on record as “All of the compounds showed similar levels of inhibition of the GTPase activity of FtsZ”.
On FtsZ [1], `CCCCCCCCOC(=O)c1cc(O)c(O)c(O)c1` [compound 11, Octyl gallate] registered a Kd of 840 ± 220 nM.
In the case of `CCCCCOC(=O)c1cc(O)c(O)c(O)c1` [compound 8, Pentyl gallate], on FtsZ [3], the Kd is around 3100 nM.

Values taken from paper PMC4413848, “Antibacterial activity of alkyl gallates is a combination of direct targeting of FtsZ and permeabilization of bacterial membranes” (Frontiers in Microbiology, 2015).
